# In PMC11444200, “In Vitro Evaluation of Antipseudomonal Activity and Safety Profile of Peptidomimetic Furin Inhibitors” (Biomedicines, 2024):
# How the values were obtained:
# IPEC-J2 cells = experiment: CCK-8 cytotoxicity assay in IPEC-J2 cells; format: cell-based, porcine; conditions: 50 µM or 100 µM, 24 h
# Experimental: The cell line used for the experiments was the IPEC-J2 from the jejunum of porcine. The IPEC-J2 epithelial cell line was a kind gift from Dr. Jody Gookin (Department of Clinical Sciences, College of Veterinary Medicine, North Carolina State University, Raleigh, NC, USA). The cell monolayers were maintained in 75 cm^2 cell culture flasks with filtered caps (Orange Scientific, Braine-l’Alleud, Belgium) at 37 °C in a humidified atmosphere containing 5% CO2. […]
# The possible cytotoxic effects of the inhibitors MI-1851 and MI-2415 (structures provided in Figure 1) in different concentrations on IPEC-J2 and those of inhibitor MI-2415 on PHHs were assessed for 24 h by performing the CCK-8 assay (Dojindo Molecular Technologies, Rockville, MD, USA). […] Following three times washing of the wells with PBS, 10 µL CCK-8 reagent mixed with 100 µL fresh Williams’ Medium E was added and the absorbance values were measured at 450 nm using the SpectraMax iD3 microplate reader (Molecular Devices, San José, CA, USA) after 2 h incubation. […]
# CYP3A4 = CYP3A4 (Homo sapiens, UniProt P08684); experiment: microsomal CYP3A4 activity assay (human hepatic microsomes); format: in vitro ADME; set-up: human hepatic microsomes (Gibco, Biocenter, Szeged, Hungary); tissue Gibco (Biocenter, Szeged, Hungary); host or cells: human liver microsomes; conditions: for microsomal CYP3A4 function: 25, 50 and 100 µM; for inhibition at 100 µM: human, read-out: CYP3A4 inhibitory activities
# Sequence of CYP3A4 (P08684 whole entry): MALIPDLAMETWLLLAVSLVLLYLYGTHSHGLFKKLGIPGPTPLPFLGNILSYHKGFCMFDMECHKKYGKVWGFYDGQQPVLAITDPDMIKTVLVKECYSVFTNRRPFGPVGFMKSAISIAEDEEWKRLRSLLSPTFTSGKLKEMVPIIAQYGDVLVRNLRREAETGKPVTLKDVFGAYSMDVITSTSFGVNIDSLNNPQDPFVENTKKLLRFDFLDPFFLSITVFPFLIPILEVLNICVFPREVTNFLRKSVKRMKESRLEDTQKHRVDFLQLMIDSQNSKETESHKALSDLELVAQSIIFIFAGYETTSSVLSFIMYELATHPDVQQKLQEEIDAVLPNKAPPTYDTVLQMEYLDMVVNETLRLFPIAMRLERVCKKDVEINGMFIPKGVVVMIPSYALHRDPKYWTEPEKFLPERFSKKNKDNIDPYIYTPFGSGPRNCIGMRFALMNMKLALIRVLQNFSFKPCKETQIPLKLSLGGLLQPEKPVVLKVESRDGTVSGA
# Experimental: To investigate the effects of inhibitor MI-2415 on CYP3A4 activities, a P450-Glo CYP450 assay (Promega, Madison, WI, USA) was used. […] This luminescent method involves adding a cell-permeable Luciferin-IPA at 3 µM, which was used in 300 µL phenol-red free Williams’ Medium E in each well in the CYP3A4 assay with an incubation time of 1 h. The luminescence activity of the product in the presence of the luciferin detection reagent was proportional to the CYP activity. For the microsomal CYP3A4 assay of inhibitors MI-1851 and MI-2415 at 25, 50, and 100 µM (n = 3), BioVision CYP assays (BioVision, Inc., Kampenhout, Belgium) were used according to the manufacturer’s instructions. The protein content of human hepatic microsomes (Gibco, Biocenter, Szeged, Hungary) was determined by the bicinchoninic acid protein assay kit (Pierce BCA kit, Thermo Fisher Scientific, Waltham, MA, USA) and a 100 µg/well protein was used in each study. […] A Victor X2 2030 fluorescence spectrometer (Perkin Elmer, Waltham, MA, USA) was used to detect the fluorescence intensities of the microsomal CYP3A4 function at wavelengths of λex/em = 535/587 nm and it was also applied to detect the luminescence signals of the cell-based CYP3A4 activity assay.
# [1] = tested on: α1-acid glycoprotein (AGP); experiment: fluorescence quenching of α1-acid glycoprotein; format: binding; conditions: AGP 2 μM, ligand 0.25-2.5 μM, PBS pH 7.4, λex 285 nm
# Experimental: Human serum albumin (HSA) (product code: A1653) and α1-acid glycoprotein (AGP) (product code: G9885) were purchased from Merck (Darmstadt, Germany) and used as received. Fluorescence emission spectra were recorded using a Hitachi F-4500 fluorometer (Tokyo, Japan), while absorption spectra were collected by employing a Hitachi U-3900 UV–Vis spectrophotometer (Tokyo, Japan). Before the evaluation of fluorescence data, the inner-filter effects of MI-1851 and MI-2415 were corrected based on the following equation [23, 24]:(1) Icor=Iobs×e^(Aex+Aem)/2 where Icor and Iobs are the corrected and observed emission intensities, respectively; and Aex and Aem are the absorbance of the MI compounds tested at the excitation and emission wavelengths used, respectively.
# To examine the potential interaction of inhibitor MI-2415 with HSA, increasing levels of the ligand (final concentrations: 0, 1, 2, 3, 4, 7, and 10 μM) were added to a standard amount of the protein (2 μM) in PBS (pH 7.4), and then the emission spectra were recorded (λex = 295 nm, λem = 340 nm). Furthermore, the quenching effects of inhibitors MI-1851 and MI-2415 (both 0, 0.25, 0.5, 1, 1.5, 2, and 2.5 μM) were also tested on the emission signal of AGP (2 μM) in PBS (λex = 285 nm, λem = 337 nm).
smiles,measurement,setting,value
CC(C)(C)[C@H](NC(=O)[C@H](CCONC(=N)N)NC(=O)Cc1ccc(CNC(=N)N)cc1)C(=O)N[C@@H](CCONC(=N)N)C(=O)NCc1ccc(C(=N)N)cc1 [MI-1851],cell viability of IPEC-J2 cells,IPEC-J2 cells,did not show a significant decrease in cell viability
same,microsomal CYP3A4 function,CYP3A4,suppressed CYP3A4 function in a concentration-dependent manner
same,inhibition at 100 µM,CYP3A4,30 to 50%
same,effect on fluorescence signal of AGP at 337 nm,[1],did not induce relevant changes in the fluorescence signal of AGP
CC(C)(C)[C@H](NC(=O)[C@H](CCONC(=N)N)NC(=O)Cc1ccc(CNC(=N)N)cc1)C(=O)N[C@@H](CCONC(=N)N)C(=O)NCc1ccc2c(c1)CN=C2N [MI-2415],cell viability of IPEC-J2 cells,IPEC-J2 cells,did not show a significant decrease in cell viability
same,concentration from which CYP3A4 inhibition is significant,CYP3A4,50 µM
same,microsomal CYP3A4 function,CYP3A4,reduce CYP3A4 activity but only from 50 µM
same,inhibition at 100 µM,CYP3A4,30 to 50%
same,effect on fluorescence signal of AGP at 337 nm,[1],did not induce relevant changes in the fluorescence signal of AGP
